What was measured:
[1] = test system: hemoglobin Alc antibody MAB (monoclonal); test: Inhibition of osmium mediator-peptide conjugate current by antibody (enzyme amplified amperometry, palladium electrodes); assay type: binding; details: for Inhibition with Antibody, MAB: maximum inhibition
Description: (§1) 4. Appropriate stoichiometry of the reaction was determined for the two reactions independently by methods standard for immunoassay development. A solution containing a fixed amount of labeled conjugate was mixed with a solution with varying amounts of antibody, and, following an appropriate incubation period, the amount of free conjugate remaining was measured on the IDA electrode using the procedure described above.
(§2) Polyclonal DE (ion-exchange) purified sheep antibody is used in the TinaQuant HbAlc assay. IS (immunosorbent) antibody is prepared using standard IS purification methodology. Samples of a monoclonal antibody were also obtained for evaluation. Inhibition curves were performed in solution with all mixing occurring in microcentrifuge tubes. Inhibition curves with the three hemoglobin Alc antibodies (PAB IS, PAB DE, and MAB) were generated by fixing OS-DSG-Alc at 5μM and varying the antibody concentration. […] From the inhibition curves we were able to select reasonable concentrations of antibody for maximum reversal with Alc samples.
(§3) While these feasibility studies for a HbAlc immunoassay used an enzyme mediated amplification method (Glucdor/PQQ/glucose was used to regenerate reduced mediator after oxidation at the electrode surface providing a higher diffusion controlled current is given by the cottrell equation), they are considered to be indicative of results attainable with the use of IDA electrodes with bipotentiostatic control is most preferred for measuring mediator labeled conjugates in accordance with this invention.

[2] = test system: hemoglobin Alc antibodies (PAB IS, PAB DE, MAB); test: Reversal of antibody inhibition with BSA-Alc polyhaptan; assay type: binding
Description: Reversal curves were then generated using a series of dilutions ofBAS-Alc-polyhaptan with a−1:1 Alc:BAS. The BAS-Alc acts as our sample and binds to the antibody.

[3] = test system: hemoglobin Alc antibody PAB IS (polyclonal, immunosorbent purified); test: Inhibition of osmium mediator-peptide conjugate current by antibody (enzyme amplified amperometry, palladium electrodes); assay type: binding, sheep; details: for Inhibition with Antibody, PAB IS: maximum inhibition
Description: 3. Antibodies for the analytes (HbAlc and HbAO) which react specifically with the N-terminal peptides which have been incorporated into the conjugate are provided by standard methods for producing polyclonal antibodies. In this case, sheep were immunized with carrier proteins to which were conjugated the synthetic peptide sequences for HbAlc and HbA0. Following the appropriate immunization schedule, the sheep were bled, and the antibody isolated from the blood via ion exchange chromatography, followed by immunosorbent purification on a column of the same N-terminal peptide with a different linker.
as §1, §2, §3

[4] = Stability of mediator labels (analytical HPLC, % inhibition values over time); assay type: physicochemical; details: for Stability in solution: stored as solution
Description: (§4) Samplers frozen at−20° C. appear to be stable.

[5] = test system: hemoglobin Alc antibody PAB DE (polyclonal, ion-exchange purified); test: Inhibition of osmium mediator-peptide conjugate current by antibody (enzyme amplified amperometry, palladium electrodes); assay type: binding, sheep; details: for Inhibition with Antibody, PAB DE: maximum inhibition
Description: as §1, §2, §3

HbAlc antibodies = test: Inhibition curves of mediator labels, antibody not given; assay type: binding
Description: as §2, §4

Zymed rabbit antibodies = test: Inhibition of Ao conjugate current by antibody; assay type: binding
HbAo antibody = test: Reversal of antibody inhibition with AoHB-peptide #1; assay type: binding
Sheep B<HbAo> antibody = test: Inhibition of Ao conjugate current by antibody; assay type: binding
glucose oxidase = glucose oxidase (Aspergillus niger, UniProt P13006); details: with glucose oxidase; cited from earlier work
Chain of glucose oxidase (P13006 17-605, species assumed): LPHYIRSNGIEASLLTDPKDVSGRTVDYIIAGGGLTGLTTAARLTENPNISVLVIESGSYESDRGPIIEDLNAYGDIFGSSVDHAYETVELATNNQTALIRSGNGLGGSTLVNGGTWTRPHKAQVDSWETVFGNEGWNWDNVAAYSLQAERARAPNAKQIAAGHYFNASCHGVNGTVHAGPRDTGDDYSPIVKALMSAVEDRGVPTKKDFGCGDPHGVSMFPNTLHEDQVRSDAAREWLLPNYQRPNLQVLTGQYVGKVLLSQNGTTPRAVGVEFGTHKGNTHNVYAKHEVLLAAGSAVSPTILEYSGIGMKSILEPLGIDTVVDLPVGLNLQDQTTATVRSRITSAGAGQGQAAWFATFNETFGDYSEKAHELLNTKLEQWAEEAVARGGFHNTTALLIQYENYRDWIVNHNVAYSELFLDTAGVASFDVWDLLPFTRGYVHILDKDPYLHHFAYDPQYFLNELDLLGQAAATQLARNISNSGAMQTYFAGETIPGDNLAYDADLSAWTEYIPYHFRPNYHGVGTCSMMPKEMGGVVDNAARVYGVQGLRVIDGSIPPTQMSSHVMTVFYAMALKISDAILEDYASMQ

Compound	Inhibition with Antibody, MAB [1]	Reversal with BSA-Alc polyhaptan [2]	Inhibition with Antibody, PAB IS [3]	Inhibition with Antibody, PAB DE [5]	Stability in solution [4]	Max inhibition from inhibition curve (HbAlc antibodies)	further results
CC(C)CC(NC(=O)C(Cc1cnc[nH]1)NC(=O)C(NCC1(O)OCC(O)C(O)C1O)C(C)C)C(=O)NC(C(=O)NC(CCCCNC(=O)CCCC(=O)NCCc1c[n+]([Os]23([Cl])([n+]4ccccc4-c4cccc[n+]42)[n+]2ccccc2-c2cccc[n+]23)c[nH]1)C(=O)O)C(C)O (centres unmarked) [Os-DSG-Alc]	MAB (<78%)	Yes with BSA-Alc	PAB IS (≦91%)	PAB DE (<87%)			Antibody concentration at which maximum change of inhibition is reached, MAB ([1]; conjugate fixed at 5 μM): ~5 µM; Antibody concentration at which maximum change of inhibition is reached, PAB IS ([3]; conjugate fixed at 5 μM): ~5 µM; Stability lyophilized and frozen ([4]; lyophilized form and frozen in solution at -20 C (40 and 80 uM)): stable; Amount of PAB DE antibody needed to get close to maximum inhibition, relative to PAB IS and MAB ([5]; conjugate fixed at 5 μM): more than 3 times
CC(C)CC(NC(=O)C(Cc1cnc[nH]1)NC(=O)C(NCC1(O)OCC(O)C(O)C1O)C(C)C)C(=O)NC(C(=O)NC(CCCCNC(=O)CCCCCN1C(=O)CC(SCC(=O)NCCc2c[n+]([Os]34([Cl])([n+]5ccccc5-c5cccc[n+]53)[n+]3ccccc3-c3cccc[n+]34)c[nH]2)C1=O)C(=O)O)C(C)O (centres unmarked) [Os-SATA-Alc]		Yes with BSA-Alc	PAB IS (≦44%)		Stability similar to SMCC.	44%	
CC(C)CC(NC(=O)C(Cc1cnc[nH]1)NC(=O)C(N)C(C)C)C(=O)NC(C(=O)NC(CCCCNC(=O)CCCCCN1C(=O)CC(SCC(=O)NCCc2c[n+]([Os]34([Cl])([n+]5ccccc5-c5cccc[n+]53)[n+]3ccccc3-c3cccc[n+]34)c[nH]2)C1=O)C(=O)O)C(C)O (centres unmarked) [Os-SATA-Ao]					unstable in solution. Conjugate		Inhibition with Antibody, Zymed rabbit antibodies (Zymed rabbit antibodies): No; Reversal with AoHB-peptide #1 (HbAo antibody): No with AoHB-; Inhibition with Antibody, Sheep B<HbAo> (Sheep B<HbAo> antibody): ≤ 84%
CC(C)CC(NC(=O)C(Cc1cnc[nH]1)NC(=O)C(NCC1(O)OCC(O)C(O)C1O)C(C)C)C(=O)NC(C(=O)NC(CSC1CC(=O)N(CC2CCC(C(=O)NCCc3c[n+]([Os]45([Cl])([n+]6ccccc6-c6cccc[n+]64)[n+]4ccccc4-c4cccc[n+]45)c[nH]3)CC2)C1=O)C(=O)O)C(C)O (centres unmarked) [Os-SMCC-Alc]	MAB (≦50%)	Yes with BSA-Alc	PAB IS (≦92%)	PAB DE (≦97%)	Degrades in solution.	97%	
Bis(2,2′-bipyridyl) imidazolyl chloroosmium [Os mediator]							Mediation kinetics relative to ferricyanide (glucose oxidase): about 500 times faster

— patent publication USRE40198E1, “Method and device for electrochemical immunoassay of multiple analytes” (Roche Diagnostics Operations, Inc., priority 1998, dated 2008)
